Test results published in patent EP0646574A1, “Ketonic indane derivatives, their preparation and therapeutic application thereof” (LABORATOIRE INNOTHERA Société Anonyme, priority 1993, dated 1995).

What was measured:
veines saphènes de lapin = assay: contraction of isolated rabbit saphenous veins produced by KCl (40 mM); conditions: for EC50: potentiation of KCl (40 mM) contractions of rabbit saphenous veins, read-out: DE50 (the source's name)
From the text: L'effet contractile est mesuré in vitro : • par la force de contraction développée par des anneaux vasculaires quiescents ou stimulés (soit électriquement soit par des agents physiologiques) et maintenus dans des conditions isométriques, • par la pression développée par des réseaux vasculaires perfusés à débit constant.
Les composés de formule (1) et leurs sels éventuels augmentent la contraction des veines saphènes animales produite par la noradrénaline et la dépolarisation (solution hyperpotassique) sans affecter, dans la majorité des cas, les réponses contractiles artérielles. A titre illustratif, les composés des exemples 3, 5, 8, 11, 13, 15, 31 (10 nM à […]) augmentent de plus de 40 % (DE50 ± 0,3 microM) les contractions des veines saphènes de lapin produites par le KCl (40 mM).

[1] = free radical scavenging with DPPH as stable free radical; conditions: DPPH model
From the text: L'effet "piégeur de radicaux libres" global est étudié in vitro par un modèle utilisant le 1,1-diphényl-2-picrylhydrazyl (DPPH) comme radical libre stable, méthode dérivée de celle décrite par Lamaison et col., Plantes Médic. et Phytothérapie, XXII, 1988, 231-234.

rat = assay: carrageenan-induced pleurisy in the rat; type: in vivo; conditions: twice i.p. 5 mg/kg, 6 hours after carrageenan injection
Description: L'activité antiinflammatoire est démontrée par la mesure de l'inhibition de l'oedème et de la migration leucocytaire après induction d'une pleurésie chez le rat par injection de carragénine dans la cavité pleurale (Almeida et col., J. Pharmacol. Exp. Therap., 1980, 214 : 74).
A titre illustratif, les composés des exemples 21, 23 administrés deux fois en i.p. à la dose de 5 mg/kg inhibent l'oedème et la migration leucocytaire dans la cavité pleurale, 6 heures après injection de carragénine dans le modèle de la pleurésie chez le rat.

[2] = system: hyperperméabilité vasculaire induite par le zymosan; assay: vascular hyperpermeability induced by zymosan, in vivo; conditions: 2 and 4 hours after per os 1 à 20 mg/kg
From the text: La perméabilité vasculaire est étudiée in vivo et in vitro par la mesure de l'extravasation d'albumine ou de colorant liant l'albumine (Bleu Evans). In vivo, l'hyperperméabilité est induite par l'injection d'une solution d'histamine, de bradykinine ou de zymosan. Les modèles in vitro permettent de réaliser des hyperpressions (sur un territoire vasculaire isolé) et/ou des réactions vasculaires inflammatoires.
A titre illustratif, les composés des exemples 28, 27, 25 diminuent l'hyperperméabilité vasculaire induite par le zymosan lorsque celle-ci est mesurée 2 et 4 heures après administration per os de 1 à 20 mg/kg.

Row | Structure (SMILES) | augmentation des contractions des veines saphènes de lapin produites par le KCl (40 mM) (veines saphènes de lapin) [%] | EC50 (veines saphènes de lapin) [nM] | also measured
1 | Nc1cccc(NC(=O)NN=c2c(=O)c3ccccc3c2=O)c1 [exemple 3, 2-[(3-Aminophenyl)aminocarbonylhydrazono]-2.3-dihydro1.3-dioxo-1H-indène] | > 40 | ~300 | –
2 | Nc1ccc(NC(=O)NN=c2c(=O)c3ccccc3c2=O)cc1 [exemple 5, 2-[(4-Aminophenyl)aminocarbonylhydrazono]-2.3-dihydro-1.3-dioxo-1H-indène] | > 40 | ~300 | –
3 | O=C(NN=c1c(=O)c2ccccc2c1=O)Nc1ccccc1[N+](=O)[O-] [exemple 7, 2.3-Dihydro-1.3-dioxo-2-[(2-nitrophenyl)aminocarbonylhydrazono]-1H-indène] | – | – | effet antiradicalaire [1]: présentent un effet antiradicalaire
4 | O=C(NN=c1c(=O)c2ccccc2c1=O)Nc1cccc([N+](=O)[O-])c1 [exemple 8, 2.3-Dihydro-1.3-dioxo-2-[(3-nitrophenyl)aminocarbonylhydrazono]-1H-indène] | > 40 | ~300 | –
5 | O=C(NN=c1c(=O)c2ccccc2c1=O)Nc1ccc([N+](=O)[O-])cc1 [exemple 9, 2.3-Dihydro-1.3-dioxo-2-(4-nitrophenylaminocarbonylhydrazono)-1H-indène] | – | – | effet antiradicalaire [1]: présentent un effet antiradicalaire
6 | O=C(NN=c1c(=O)c2ccccc2c1=O)Nc1ccccn1 [exemple 11, 2.3-Dihydro-1.3-dioxo-2-[(2-pyridyl)aminocarbonylhydrazono]-1H-indène, chlorhydrate] | > 40 | ~300 | –
7 | O=C(NN=c1c(=O)c2ccccc2c1=O)Nc1cccnc1 [exemple 13, 2.3-Dihydro-1.3-dioxo-2-[(3-pyridyl)aminocarbonylhydrazono]-1H-indène] | > 40 | ~300 | –
8 | O=C(NN=c1c(=O)c2cccc(F)c2c1=O)Nc1ccccc1 [exemple 21, 2.3-Dihydro-1.3-dioxo-4-fluoro-2-(phenylaminocarbonylhydrazono)-1H-indène] | – | – | migration leucocytaire dans la cavité pleurale (rat): inhibent; oedème (rat): inhibent
9 | O=C(NN=c1c(=O)c2cccc(F)c2c1=O)Nc1cccnc1 [exemple 23, 2.3-Dihydro-1.3-dioxo-4-fluoro-2-[(3-pyridyl)aminocarbonylhydrazono]-1H-indène] | – | – | migration leucocytaire dans la cavité pleurale (rat): inhibent; oedème (rat): inhibent
10 | O=C(NN=c1c(=O)c2cccc(F)c2c1=O)Nc1ccncc1 [exemple 25, 2.3-Dihydro-1.3-dioxo-4-fluoro-2-[(4-pyridyl)aminocarbonylhydrazono]-1H-indène] | – | – | hyperperméabilité vasculaire induite par le zymosan [2]: diminuent
11 | O=C(NN=c1c(=O)c2ccc(F)cc2c1=O)Nc1ccccc1 [exemple 27, 2.3-Dihydro-1.3-dioxo-5-fluoro-2-(phenylaminocarbonylhydrazono)-1H-indène] | – | – | hyperperméabilité vasculaire induite par le zymosan [2]: diminuent
12 | O=C(NN=c1c(=O)c2ccc(F)cc2c1=O)Nc1ccc(F)cc1 [exemple 28] | – | – | hyperperméabilité vasculaire induite par le zymosan [2]: diminuent
13 | O=C(NN=c1c(=O)c2ccc(F)cc2c1=O)Nc1ccncc1 [exemple 31, 2.3-Dihydro-1.3-dioxo-5-fluoro-2-[(4-pyridyl)aminocarbonylhydrazono]-1H-indène] | > 40 | ~300 | –
